In US20070060533A1, “Novel inhibitor of the formation of advanced glycation end product and aldose reductase inhibitor” (Meiji Seika Kaisha Ltd., priority 2003, published 2007):

Key:
AGE formation = AGE formation suppression test (glucose + bovine serum albumin, fluorescence); format: biochemical; conditions: 67 mmol/L phosphate buffer pH 7.2, 60° C., 48 hours
Description: The test was conducted by a partially modified version of the method of Morimitu et al (Morimitu. Y. et. al., Biosci. Biotech. Biochem., 59, 2018-2021 (1995)). Specifically, glucose, each test substance dissolved in DMSO, and bovine serum albumin were incubated in a 67 mmol/L phosphate buffer (pH 7.2) at 60° C. for 48 hours. AGE was thus sufficiently formed by incubation. The amount of formed AGE was discovered by dilution of the reaction solution followed by measurement using a fluorospectrophotometer. The 50% inhibition concentration (IC50) was calculated using the thus obtained value. The lower the IC50, the higher the AGE-inhibiting activity. This indicates the usefulness of a substance as an inhibitor.
(§1) The test substances used herein were the anthocyanin-containing composition prepared in Example 1 and 4 types of crystalline anthocyanin prepared in Example 2.

aldose reductase = target: T1, aldose reductase (Rattus norvegicus, UniProt P07943); experiment: Aldose-reductase-inhibiting activity test (rat lens crude enzyme); format: biochemical, Wistar male rats; conditions: DL glycerylaldehyde substrate, pH 7.0, 30° C.
T1 construct: the supernatant was used as a crude enzyme solution; from tissue; host or cells: lenses of Wistar male rats
Description: The test was conducted by a partially modified version of the method of Dufrane et al (Dufrane S. P. et al., Biochem. Med., 32, 99-105 (1984)). Specifically, the lenses of Wistar male rats were homogenized with 10 mmol/L 2-mercapto ethanol. The resultant was centrifuged, and then the supernatant was used as a crude enzyme solution. Each test substance was dissolved in DMSO and then added to a 180 mmol/L phosphate buffer (pH 7.0). 100 mmol/L lithium sulfate and 0.03 mmol/L NADPH were further added to the solution to initiate a reaction at 30° C. using 1 mmol/L DL glycerylaldehyde as a substrate. 0.5 mol/L HCl was added to stop the reaction. 6 mol/L sodium hydroxide containing 10 mmol/L imidazole was added to the solution. The solution was heated for 20 minutes at 60° C. to convert NADP to a fluorescent substance. The thus generated fluorescent substance was subjected to measurement using a fluorospectrophotometer. 50% inhibition concentration (IC50) was calculated using the thus obtained value.
as §1

| SMILES | IC50 (AGE formation) [µM] | IC50 (aldose reductase) [µM] |
| --- | --- | --- |
| N=C(N)NN [Aminoguanidine, aminoguanidine, reference compound] | 1200 |  |
| OCC1OC(Oc2cc3c(O)cc(O)cc3[o+]c2-c2ccc(O)c(O)c2)C(O)C(O)C1O (stereo not shown) [Example 2 (C3G), cyanidin-3-O-glucoside] | 132 | 4.7 |
| CC1OC(OCC2OC(Oc3cc4c(O)cc(O)cc4[o+]c3-c3ccc(O)c(O)c3)C(O)C(O)C2O)C(O)C(O)C1O (stereo not shown) [Example 2 (C3R), cyanidin-3-O-rutinoside] | 154 | 2.5 |
| OCC1OC(Oc2cc3c(O)cc(O)cc3[o+]c2-c2cc(O)c(O)c(O)c2)C(O)C(O)C1O (stereo not shown) [Example 2 (D3G), delphinidin-3-O-glucoside] | 99 | 12.5 |
| CC1OC(OCC2OC(Oc3cc4c(O)cc(O)cc4[o+]c3-c3cc(O)c(O)c(O)c3)C(O)C(O)C2O)C(O)C(O)C1O (stereo not shown) [Example 2 (D3R), delphinidin-3-O-rutinoside] | 163 | 15.2 |
| C[C@@H]1O[C@@H](OC[C@H]2O[C@@H](Oc3c(-c4ccc(O)c(O)c4)oc4cc(O)cc(O)c4c3=O)[C@H](O)[C@@H](O)[C@@H]2O)[C@H](O)[C@H](O)[C@H]1O [Rutin, rutin, reference compound] |  | 9 |
